These are literature values, as cited in US20210244731A1, “TABLET CONTAINING ANTITUMOR AGENT” (FUJIFILM Corporation, priority 2018, published 2021).

In the series the target is T1, FLT3 (Homo sapiens, UniProt P36888).
T1 sequence (P36888 27-993): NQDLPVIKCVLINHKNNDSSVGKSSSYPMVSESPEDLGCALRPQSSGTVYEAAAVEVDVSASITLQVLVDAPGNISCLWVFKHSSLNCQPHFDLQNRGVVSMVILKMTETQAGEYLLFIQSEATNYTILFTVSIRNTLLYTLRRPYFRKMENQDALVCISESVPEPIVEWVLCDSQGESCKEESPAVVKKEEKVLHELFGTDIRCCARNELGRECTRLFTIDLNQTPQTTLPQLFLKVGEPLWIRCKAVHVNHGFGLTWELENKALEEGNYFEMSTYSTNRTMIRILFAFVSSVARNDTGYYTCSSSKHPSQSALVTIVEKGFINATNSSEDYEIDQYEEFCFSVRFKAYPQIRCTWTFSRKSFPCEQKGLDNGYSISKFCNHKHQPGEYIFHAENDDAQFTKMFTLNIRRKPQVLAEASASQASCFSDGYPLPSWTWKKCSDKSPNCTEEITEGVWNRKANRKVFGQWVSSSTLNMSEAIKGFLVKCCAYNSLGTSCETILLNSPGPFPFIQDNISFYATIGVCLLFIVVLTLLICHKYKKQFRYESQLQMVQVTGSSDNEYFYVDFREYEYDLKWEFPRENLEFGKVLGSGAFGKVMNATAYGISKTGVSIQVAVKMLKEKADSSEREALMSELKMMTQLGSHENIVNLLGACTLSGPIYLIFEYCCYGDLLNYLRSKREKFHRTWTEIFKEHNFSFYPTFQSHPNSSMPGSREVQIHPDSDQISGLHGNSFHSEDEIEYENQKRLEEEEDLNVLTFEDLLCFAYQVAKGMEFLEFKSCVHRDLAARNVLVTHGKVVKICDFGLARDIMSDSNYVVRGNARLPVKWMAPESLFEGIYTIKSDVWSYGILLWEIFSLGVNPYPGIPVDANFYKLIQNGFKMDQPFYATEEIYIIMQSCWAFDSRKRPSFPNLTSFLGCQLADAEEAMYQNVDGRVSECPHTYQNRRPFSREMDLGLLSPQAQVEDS
The note with it: statement of background, WO2015/056683A.

For `CCCNc1nc(Nc2ccc(C#N)cc2)ncc1C#CCCCNC(=O)[C@H](C)N(C)C(=O)/C=C/CN(C)C` [Compound A, (S,E)-N-(1-((5-(2-((4-cyanophenyl)amino)-4-(propylamino)pyrimidin-5-yl)-4-pentyn-1-yl)amino)-1-oxopropan-2-yl)-4-(dimethylamino)-N-methyl-2-butenamide], the FLT3 inhibitory action result is “FLT3 inhibitory action”.
